# Experimental data: US20070027218A1, “Pharmaceutical compositions comprising higher primary alcohols and ezetimibe and process of preparation thereof” (PANACEA BIOTEC LTD., priority 2004, published 2007)
# Tested on: Casein-Starch-Induced Hypercholesterolemia in Rabbits
# Experiment: Casein-starch-induced hypercholesterolemia in rabbits (serum lipid profile)
# Assay type: in vivo
# Details: for LDL-C level / serum total cholesterol level: mean ± S.E.M., in mg/dL (unit assumed)
# Description: The observed unexpected synergistic lipid lowering effect of combination of Extract-A as described herein and ezetimibe is evidenced by the test conducted in rabbits. Rabbits of either sex were procured from Central Animal House facility; Panacea Biotec Ltd., India. Animals weighing […] at the time of testing were used throughout. All animals were dosed sequentially by the oral route with Extract-A and/or ezetimibe suspended in 0.5% of carboxymethyl cellulose (CMC). A dosing volume of 2 ml/kg was used for each sequential suspension.
# The fasting serum lipid profile (TC, TGs, LDL-C, HDL-C) was estimated before initiation of the experiment. […] Hypercholesterolemia was induced by feeding rabbits with wheat casein-starch diet (g/kg) containing wheat flour 333, cellulose 300, casein 270, water 20, maize oil 10, and mineral mixture (Kroon et al., 1982) for 8 weeks. Feed consumption was restricted to 100 g/day per animal. The cholesterol level was estimated every 15 days. After 60 days animals with total cholesterol level>150 mg/dl were randomized to treatment (n=6/group). Thereafter, various doses of Extract-A and/or ezetimibe were administered for another 60 days during which animals were fed with casein-starch diet. Blood samples were collected from fasted rabbits and analyzed for any alteration in serum lipid profile after 60 days of test compound(s) administration.
# All the data are expressed as mean±S.E.M. (Standard Error of Mean). Student t-test was used to compare the lipid parameters between animals fed with standard and hypercholesterolemic diet. The difference between various drug treated groups was analyzed by ANOVA followed by Dunnett's test. A value of P<0.05 was considered as statistically significant.
# [1] = Extract-A 100 and 200 mg/kg p.o., ezetimibe 5 and 10 mg/kg p.o., alone or in combination, vs hypercholesterolemic control rabbits
# [2] = ezetimibe 5 mg/kg p.o., day 0 (before treatment)
# [3] = ezetimibe 5 mg/kg p.o., day 15 (before treatment)
# [4] = ezetimibe 5 mg/kg p.o., day 30 (before treatment)
# [5] = ezetimibe 5 mg/kg p.o., day 60 (start of treatment)
# [6] = ezetimibe 5 mg/kg p.o., day 75 (treatment from day 60)
# [7] = ezetimibe 5 mg/kg p.o., day 90 (treatment from day 60)
# [8] = ezetimibe 5 mg/kg p.o., day 105 (treatment from day 60)
# [9] = ezetimibe 5 mg/kg p.o., day 120 (treatment from day 60)
# [10] = ezetimibe 10 mg/kg p.o., day 0 (before treatment)
# [11] = ezetimibe 10 mg/kg p.o., day 15 (before treatment)
# [12] = ezetimibe 10 mg/kg p.o., day 30 (before treatment)
# [13] = ezetimibe 10 mg/kg p.o., day 60 (start of treatment)
# [14] = ezetimibe 10 mg/kg p.o., day 75 (treatment from day 60)
# [15] = ezetimibe 10 mg/kg p.o., day 90 (treatment from day 60)
# [16] = ezetimibe 10 mg/kg p.o., day 105 (treatment from day 60)
# [17] = ezetimibe 10 mg/kg p.o., day 120 (treatment from day 60)
smiles,measurement,setting,value
"O=C1[C@H](CC[C@H](O)c2ccc(F)cc2)[C@@H](c2ccc(O)cc2)N1c1ccc(F)cc1 [Ez, ezetimibe]",LDL-C levels (result in words),[1],reversed
same,TC levels (result in words),[1],reversed
same,LDL-C level,[2],22.40 ± 8.81
same,serum total cholesterol level,[2],52.50 ± 3.59
same,LDL-C level,[3],76.13 ± 3.11
same,serum total cholesterol level,[3],103.50 ± 2.23
same,LDL-C level,[4],131.53 ± 6.89
same,serum total cholesterol level,[4],169.83 ± 6.16
same,LDL-C level,[5],174.3 ± 8.02
same,serum total cholesterol level,[5],219.83 ± 7.5
same,LDL-C level,[6],194.07 ± 4.29
same,serum total cholesterol level,[6],236.50 ± 3.47
same,LDL-C level,[7],179.47 ± 3.74
same,serum total cholesterol level,[7],222.83 ± 2.77
same,LDL-C level,[8],156.47 ± 12.92
same,serum total cholesterol level,[8],201.00 ± 12.6
same,LDL-C level,[9],129.17 ± 9.02
same,serum total cholesterol level,[9],181.50 ± 8.55
same,LDL-C level,[10],23.70 ± 7.98
same,serum total cholesterol level,[10],46.50 ± 2.2
same,LDL-C level,[11],72.70 ± 3.92
same,serum total cholesterol level,[11],106.83 ± 3.38
same,LDL-C level,[12],125.07 ± 10.94
same,serum total cholesterol level,[12],162.50 ± 11.54
same,LDL-C level,[13],197.03 ± 13.55
same,serum total cholesterol level,[13],234.50 ± 14.24
same,LDL-C level,[14],179.83 ± 9.83
same,serum total cholesterol level,[14],220.33 ± 8.73
same,LDL-C level,[15],152.80 ± 6.17
same,serum total cholesterol level,[15],197.66 ± 5.42
same,LDL-C level,[16],126.60 ± 6.85
same,serum total cholesterol level,[16],172.16 ± 6.58
same,LDL-C level,[17],124.63 ± 6.55
same,serum total cholesterol level,[17],171.50 ± 4.7
